Consider 34 compounds from US9181255B2, “Fused heteroaromatic pyrrolidinones as SYK inhibitors” (Takeda Pharmaceutical Company Limited, priority 2009, dated 2015).

The first experiment addresses SYK (Homo sapiens, UniProt P43405). Put plainly: SYK inhibition assay: SYK-mediated phosphorylation of FAM-labeled substrate (Caliper microfluidic). The class given is biochemical. The note with it: SYK kinase domain (residues 356-635); 5FAM-KKKKEEIYFFFG-NH2 substrate; ATP; RT 60 min; pIC50 = -log(IC50), IC50 molar.
For `N[C@H]1COCC[C@H]1Nc1nc(-c2cnn(C(F)F)c2)c2c(c1F)CNC2=O` [Example 93, 6-((3R,4R)-3-Aminotetrahydro-2H-pyran-4-ylamino)-4-(1-(difluoromethyl)-1H-pyrazol-4-yl)-7-fluoro-1H-pyrrolo[3,4-c]pyridin-3(2H)-one], the “SYK Inhibition (pIC50)” value is on record as 8.0.

The same experiment, now with this note: read-out: SYK Inhibition (pIC50) (converted).
On to `Cc1cccc(Nc2nc(N[C@@H]3CCCC[C@@H]3N)c(-c3ccnn3C)c3c2C(=O)NC3)c1` [Example 84, 6-((1R,2S)-2-Aminocyclohexylamino)-7-(1-methyl-1H-pyrazol-5-yl)-4-(m-tolylamino)-1H-pyrrolo[3,4-c]pyridin-3(2H)-one], for which the IC50 is 20 nM.
On the same count and under the same terms, then `Cc1cccc(Nc2nc(N[C@@H]3CCOC[C@@H]3N)cc3c2C(=O)NC3)c1` [Example 85, 6-((3R,4R)-3-Aminotetrahydro-2H-pyran-4-ylamino)-4-(m-tolylamino)-1H-pyrrolo[3,4-c]pyridin-3(2H)-one], with 3.98 nM; and `Cc1cccc(Nc2nc(N[C@H]3COCC[C@H]3N)cc3c2C(=O)NC3)c1` [Example 86, 6-((3R,4R)-4-Aminotetrahydro-2H-pyran-3-ylamino)-4-(m-tolylamino)-1H-pyrrolo[3,4-c]pyridin-3(2H)-one], with 2510 nM; and `Cc1cccc(Nc2nc(N[C@@H]3CCCC[C@@H]3N)c(-c3ccccc3)c3c2C(=O)NC3)c1` [Example 87], with 63.1 nM.
Still for that read-out and setting: the value for `Cc1cccc(Nc2nc(N[C@@H]3CCOC[C@@H]3N)c(F)c3c2C(=O)NC3)c1` [Example 89, 6-((3R,4R)-3-Aminotetrahydro-2H-pyran-4-ylamino)-7-fluoro-4-(m-tolylamino)-1H-pyrrolo[3,4-c]pyridin-3(2H)-one] was 3.98 nM; that for `Cc1c(N[C@@H]2CCCC[C@@H]2N)nc(-c2cnn(C)c2)c2c1CNC2=O` [Example 90, 6-((1R,2S)-2-Aminocyclohexylamino)-7-methyl-4-(1-methyl-1H-pyrazol-4-yl)-1H-pyrrolo[3,4-c]pyridin-3(2H)-one] was 10 nM.
Same read-out and setting: the value for `COC[C@H](N)CNc1cc2c(c(-c3cnn(C)c3)n1)C(=O)NC2` [Example 91, (R)-6-(2-Amino-3-methoxypropylamino)-4-(1-methyl-1H-pyrazol-4-yl)-1H-pyrrolo[3,4-c]pyridin-3(2H)-one] was 251 nM.
As to `N[C@H]1COCC[C@H]1Nc1nc(-c2cnn3ccccc23)c2c(c1F)CNC2=O` [Example 92, 6-((3R,4R)-3-Aminotetrahydro-2H-pyran-4-ylamino)-7-fluoro-4-(pyrazolo[1,5-a]pyridin-3-yl)-1H-pyrrolo[3,4-c]pyridin-3(2H)-one], the IC50 is 12.6 nM.
The same measure, in the same setting: then `N[C@H]1COCC[C@H]1Nc1nc(-c2coc3ccccc23)c2c(c1F)CNC2=O` [Example 94, 6-((3R,4R)-3-Aminotetrahydro-2H-pyran-4-ylamino)-4-(benzofuran-3-yl)-7-fluoro-1H-pyrrolo[3,4-c]pyridin-3(2H)-one], with 3.16 nM; and `Cn1cc(-c2nc(N3CC[C@H](N)C3)c(F)c3c2C(=O)NC3)cn1` [Example 95, (S)-6-(3-Aminopyrrolidin-1-yl)-7-fluoro-4-(1-methyl-1H-pyrazol-4-yl)-1H-pyrrolo[3,4-c]pyridin-3(2H)-one], with 3980 nM.
Still for that read-out and setting: then `Cn1cc(-c2nc(N3CCC[C@H](N)C3)c(F)c3c2C(=O)NC3)cn1` [Example 96, (S)-6-(3-Aminopiperidin-1-yl)-7-fluoro-4-(1-methyl-1H-pyrazol-4-yl)-1H-pyrrolo[3,4-c]pyridin-3(2H)-one], with 200 nM; and `CC(C)n1cc(-c2nc(N[C@@H]3CCCC[C@@H]3N)c(F)c3c2C(=O)NC3)cn1` [Example 97, 6-((1R,2S)-2-Aminocyclohexylamino)-7-fluoro-4-(1-isopropyl-1H-pyrazol-4-yl)-1H-pyrrolo[3,4-c]pyridin-3(2H)-one], with 158 nM.
Still for that read-out and setting: the value for `Cn1cc(-c2nc(-c3cnn(C)c3)c3c(c2F)CNC3=O)cn1` [Example 98, 7-Fluoro-4,6-bis(1-methyl-1H-pyrazol-4-yl)-1H-pyrrolo[3,4-c]pyridin-3(2H)one] was 2000 nM.
Regarding `Cn1cc(-c2nc(N[C@@H]3CCCC[C@@H]3N)c(Br)c3c2C(=O)NC3)cn1` [Example 99, 6-((1R,2S)-2-Aminocyclohexylamino)-7-bromo-4-(1-methyl-1H-pyrazol-4-yl)-1H-pyrrolo[3,4-c]pyridin-3(2H)-one], the IC50 is 3.16 nM.
In the case of `N[C@H]1CCCC[C@H]1Nc1nc2c(c(-c3cnn(-c4ccc(F)cc4)c3)n1)C(=O)NC2` [Example 100, 2-((1R,2S)-2-Aminocyclohexylamino)-4-(1-(4-fluorophenyl)-1H-pyrazol-4-yl)-6,7-dihydro-5H-pyrrolo[3,4-d]pyrimidin-5-one], the IC50 is 158 nM.
On the same count and under the same terms, the value for `COC[C@H](N)CNc1nc(-c2cnn(C)c2)c2c(c1F)CNC2=O` [Example 101, (R)-6-(2-Amino-3-methoxypropylamino)-7-fluoro-4-(1-methyl-1H-pyrazol-4-yl)-1H-pyrrolo[3,4-c]pyridin-3(2H)-one] was 63.1 nM; that for `N[C@H]1COCC[C@H]1Nc1nc(-c2ccsc2)c2c(c1F)CNC2=O` [Example 103, 6-((3R,4R)-3-Aminotetrahydro-2H-pyran-4-ylamino)-7-fluoro-4-(thiophen-3-yl)-1H-pyrrolo[3,4-c]pyridin-3(2H)-one] was 126 nM.
Regarding `Cc1csc(-c2nc(N[C@@H]3CCOC[C@@H]3N)c(F)c3c2C(=O)NC3)c1` [Example 104, 6-((3R,4R)-3-Aminotetrahydro-2H-pyran-4-ylamino)-7-fluoro-4-(4-methylthiophen-2-yl)-1H-pyrrolo[3,4-c]pyridin-3(2H)-one], the IC50 was 2 nM.
Same read-out and setting: the value for `Cc1csc(-c2nc(N[C@@H]3CCCC[C@@H]3N)c(F)c3c2C(=O)NC3)c1` [Example 105, 6-((1R,2S)-2-Aminocyclohexylamino)-7-fluoro-4-(4-methylthiophen-2-yl)-1H-pyrrolo[3,4-c]pyridin-3(2H)-one] was 1 nM.
Turning to `N[C@H]1CCCC[C@H]1Nc1nc(-c2ccsc2)c2c(c1F)CNC2=O` [Example 106, 6-((1R,2S)-2-Aminocyclohexylamino)-7-fluoro-4-(thiophen-3-yl)-1H-pyrrolo[3,4-c]pyridin-3(2H)-one], the IC50 was 2.51 nM.
Consider `CNC(=O)[C@@H](CC(C)C)Nc1nc(-c2cnn(C)c2)c2c(c1F)CNC2=O` [Example 107, (R)-2-(7-Fluoro-4-(1-methyl-1H-pyrazol-4-yl)-3-oxo-2,3-dihydro-1H-pyrrolo[3,4-c]pyridin-6-ylamino)-N,4-dimethylpentanamide], for which the IC50 was 501 nM.
On to `Cc1ccc(-c2nc(N[C@@H]3CCCC[C@@H]3N)c(F)c3c2C(=O)NC3)s1` [Example 108, 6-((1R,2S)-2-Aminocyclohexylamino)-7-fluoro-4-(5-methylthiophen-2-yl)-1H-pyrrolo[3,4-c]pyridin-3(2H)-one], for which the IC50 is 2.51 nM.
On to `Cc1csc(-c2nc(N[C@H](CC(C)C)C(N)=O)c(F)c3c2C(=O)NC3)c1` [Example 109, (R)-2-(7-Fluoro-4-(4-methylthiophen-2-yl)-3-oxo-2,3-dihydro-1H-pyrrolo[3,4-c]pyridin-6-ylamino)-4-methylpentanamide], for which the IC50 was 3.16 nM.
For `CC(C)C[C@@H](Nc1nc(-c2ccsc2)c2c(c1F)CNC2=O)C(N)=O` [Example 110, (R)-2-(7-Fluoro-3-oxo-4-(thiophen-3-yl)-2,3-dihydro-1H-pyrrolo[3,4-c]pyridin-6-ylamino)-4-methylpentanamide], the IC50 is 50.1 nM.
The same measure, in the same setting: the value for `Cc1ccc(-c2nc(N[C@H](CC(C)C)C(N)=O)c(F)c3c2C(=O)NC3)s1` [Example 111, (R)-2-(7-Fluoro-4-(5-methylthiophen-2-yl)-3-oxo-2,3-dihydro-1H-pyrrolo[3,4-c]pyridin-6-ylamino)-4-methylpentanamide] was 7.94 nM; that for `Nc1ncc(-c2nc(N[C@@H]3CCCC[C@@H]3N)c(F)c3c2C(=O)NC3)s1` [Example 112, 6-((1R,2S)-2-Aminocyclohexylamino)-4-(2-aminothiazol-5-yl)-7-fluoro-1H-pyrrolo[3,4-c]pyridin-3(2H)-one] was 2 nM.
`CC(C)C[C@@H](Nc1nc(-c2ccco2)c2c(c1F)CNC2=O)C(N)=O` [Example 113, (R)-2-(7-Fluoro-4-(furan-2-yl)-3-oxo-2,3-dihydro-1H-pyrrolo[3,4-c]pyridin-6-ylamino)-4-methylpentanamide]: the IC50 is 200 nM.
As for `CC(C)C[C@@H](Nc1nc(-c2ccoc2)c2c(c1F)CNC2=O)C(N)=O` [Example 114, (R)-2-(7-Fluoro-4-(furan-3-yl)-3-oxo-2,3-dihydro-1H-pyrrolo[3,4-c]pyridin-6-ylamino)-4-methylpentanamide], the IC50 is 251 nM.
Same read-out and setting: the value for `Cc1ccc(-c2nc(N[C@H](CC(C)C)C(N)=O)c(F)c3c2C(=O)NC3)o1` [Example 115, (R)-2-(7-Fluoro-4-(5-methylfuran-2-yl)-3-oxo-2,3-dihydro-1H-pyrrolo[3,4-c]pyridin-6-ylamino)-4-methylpentanamide] was 316 nM; that for `CC(C)C[C@@H](Nc1nc(-c2ccc(C#N)s2)c2c(c1F)CNC2=O)C(N)=O` [Example 116, (R)-2-(4-(5-Cyanothiophen-2-yl)-7-fluoro-3-oxo-2,3-dihydro-1H-pyrrolo[3,4-c]pyridin-6-ylamino)-4-methylpentanamide] was 7.94 nM; that for `CC(C)C[C@@H](Nc1nc(-c2cc(C#N)cs2)c2c(c1F)CNC2=O)C(N)=O` [Example 117, (R)-2-(4-(4-Cyanothiophen-2-yl)-7-fluoro-3-oxo-2,3-dihydro-1H-pyrrolo[3,4-c]pyridin-6-ylamino)-4-methylpentanamide] was 12.6 nM.
Regarding `CC(C)C[C@@H](Nc1nc(-c2cncs2)c2c(c1F)CNC2=O)C(N)=O` [Example 118, (R)-2-(7-Fluoro-3-oxo-4-(thiazol-5-yl)-2,3-dihydro-1H-pyrrolo[3,4-c]pyridin-6-ylamino)-4-methylpentanamide], the IC50 was 12.6 nM.
Regarding `CC(C)C[C@@H](Nc1nc(-c2ccns2)c2c(c1F)CNC2=O)C(N)=O` [Example 119, (R)-2-(7-Fluoro-4-(isothiazol-5-yl)-3-oxo-2,3-dihydro-1H-pyrrolo[3,4-c]pyridin-6-ylamino)-4-methylpentanamide], the IC50 was 15.8 nM.
